This note sets out measurements from paper PMC8952799, “Two Male-Specific Antimicrobial Peptides SCY2 and Scyreprocin as Crucial Molecules Participated in the Sperm Acrosome Reaction of Mud Crab Scylla paramamosain” (International Journal of Molecular Sciences, 2022).

Holding throughout (experiment): modified ELISA on progesterone-coated plate, Scatchard plot
The target of experiment [1] is T1, rScyreprocin/rSCY2 mixture.
T1 construct: gene scyreprocin; complex not isolated, stoichiometry unknown
It is filed as binding, Scylla paramamosain. The conditions noted are these: protein mixture 0-24 uM on plate coated with 3 ug progesterone; antibody detection; both proteins present.

Experiment [2] deals with T2, rScyreprocin (Scylla paramamosain, UniProt A0A7D0GB18).
T2 construct: recombinant His-tagged scyreprocin, purified
T2 sequence (A0A7D0GB18 1-84): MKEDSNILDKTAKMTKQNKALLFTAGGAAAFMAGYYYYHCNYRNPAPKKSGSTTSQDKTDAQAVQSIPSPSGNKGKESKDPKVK
The class given is binding.

Experiment [3] concerns the target T3, rSCY2 (Scylla paramamosain, UniProt A0AAW0UAN3).
T3 construct: gene SCY2; recombinant His-tagged SCY2, purified
The class given is binding. The settings on record: protein 0-24 uM on plate coated with 3 ug progesterone; antibody detection; rSCY2 alone.

The structures appear in SMILES notation.

T3 sequence (A0AAW0UAN3 25-124 limits assumed): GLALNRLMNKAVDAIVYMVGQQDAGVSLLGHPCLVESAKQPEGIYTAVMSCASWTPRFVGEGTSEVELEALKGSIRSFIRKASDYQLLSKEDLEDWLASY

Usually Kd stands for the free concentration of one partner at which half of the binding sites on the other are occupied at equilibrium, for simple one-to-one binding. On to `CC(=O)[C@H]1CC[C@H]2[C@@H]3CCC4=CC(=O)CC[C@]4(C)[C@H]3CC[C@]12C` [progesterone], for which the values for the Kd in experiment [1], in experiment [2] and in experiment [3] were 72.2 nM, 259 nM and 143 nM, respectively.
